The numbers were not newly measured in US9642356B2, “Maturation or ripening inhibitor release from polymer, fiber, film, sheet or packaging” (Cellresin Technologies, LLC, priority 2009, dated 2017), which cites them from elsewhere.

`C1=CCC=C1` [Cyclopentadiene]: the “blocking of ethylene binding” value in the data set with ethylene binding site is given as “effective blocking agent for ethylene binding”.

As to `CC1=CC1` [Example 1-MCP, 1-methylcyclopropene], in the data set with ethylene generation, the “activity for inhibiting ethylene generation” value was “at least some measurable activity”.

Turning to `C=CCC` [Example 1-butene, 1-butene], the “activity for inhibiting ethylene generation” value in the data set with ethylene generation is reported as “at least some measurable activity”.
